Measured values published in US20250340519A1, “RADIOLABELLED COMPOUND” (OXFORD UNIVERSITY INNOVATION LIMITED, priority 2018, published 2025).
Where “and” joins values, the source holds several entries; their conditions need not be identical. Equal values may be shown once.

System: CaNT allograft
Assay: Ex vivo biodistribution in CaNT allograft bearing CBA/Carl mice
Settings: for Ex vivo biodistribution Blood / Ex vivo biodistribution Bone / Ex vivo biodistribution Brain / Ex vivo biodistribution Caecum / Ex vivo biodistribution Fat / Ex vivo biodistribution Gallbladder / Ex vivo biodistribution Heart / Ex vivo biodistribution Kidney / Ex vivo biodistribution Large intestine / Ex vivo biodistribution Liver / Ex vivo biodistribution Lung / Ex vivo biodistribution Muscle / Ex vivo biodistribution Pancreas / Ex vivo biodistribution Skin / Ex vivo biodistribution Spleen / Ex vivo biodistribution Stomach / Ex vivo biodistribution Tumour: CaNT allograft mice, 1 h p.i.; for tumour uptake (group mean): CaNT tumours
Method: All animal procedures were performed in accordance with the UK Animals (Scientific Procedures) Act 1986 and with local ethical committee approval. Animals were housed in IVC cages in sex-matched groups up to 5 per cage, in an artificial day-night cycle facility, with ad libitum access to food and water. Tumour xenografts or allografts were generated by subcutaneous injection of PANC-1 or Capan-1 cell suspensions in the hind flank of balb/c nu/nu animals. CaNT xenografts were generated by harvesting CaNT tumours from donor animals, and injecting a tumour homogenate subcutaneously in the flank of wild type CBA/Carl mice. Tumours were irradiated (10 Gy, 2 Gy/min) using a 300 kV X-ray device.
Dynamic PET/CT images were acquired following an intravenous bolus administration of [^18F]-olaparib. Biodistribution studies, where selected tissues were harvested, were performed 1 h post injection. Some animals were also administered an excess of cold, unlabelled olaparib for evaluating the specificity of tumour uptake. EF5, a hypoxia-selective marker, was injected 2 h before culling of the animal. Digital autoradiography was performed on tumour sections. Image analysis was performed using PMOD.
The murine adenocarcinoma NT (CaNT) was implanted subcutaneously onto the right thigh of 6-7 week-old female CBA/Carl mice. Fifty μL of a crude cell suspension, prepared by mechanical dissociation of an excised tumor from a donor animal, was injected. Tumors were selected for imaging when the geometric mean diameter reached 6-8 mm (volumes calculated as above), approximately 3 weeks after implantation (Kersemans, V., et al. Hypoxia imaging using PET and SPECT: the effects of anesthetic and carrier gas on [Cu]-ATSM, [Tc]-HL91 and [F]-FMISO tumor hypoxia accumulation. PloS one 6, e25911, 2011).
Two hours prior to PET/CT imaging, animals were exposed to X-irradiation of the tumour (10 Gy or sham) (see schedule in FIG. 13). Radiation was delivered using a Gulmay 320 kV X-irradiator; 2.0 Gy/min. Anaesthesia was maintained at 2.5% isoflurane throughout the duration of the irradiation, and animals were allowed to recover. To study the relationship of PARP1 expression, ^18F-olaparib uptake and hypoxia, animals were administered 0.6 μg in 200 μL (0.9% saline) intraperitoneally, one hour prior to PET/CT imaging. Naïve CBA/Carl mice, not bearing tumours, were not irradiated, nor was EF5 administered.
Dynamic PET/CT images were acquired using a VECTor ^4CT integrated PET/CT system. Mice were anaesthetised by 4% isoflurane gas (0.5 L/min O2) and placed on a custom-built imaging cradle in a prone position. Animals mice were intravenously injected with [^18F]-olaparib or (3-5 MBq, 8-11 GBq/μmol, through a tail vein catheter, and dynamic imaging was performed over 45-60 min after radiolabelled compound administration. PET acquisition (150 s per frame, using list mode acquisition) using an ultra-high resolution rat/mouse 1.8 mm collimator, followed by a cone-beam CT scan (55 kV, 0.19 mA) for anatomical reference and attenuation correction. Anaesthesia was maintained at 2.5% isoflurane throughout the duration of the image acquisition. PET images were reconstructed using U-SPECT-Rec3.22 software (MILabs, Utrecht, The Netherlands), applying a pixel-based algorithm with 8 subsets, 6 iterations and 0.8 mm voxel size for ^18F (energy window settings 477.9-584.1 keV).
After PET/CT image acquisition, animals were euthanized by cervical dislocation and selected organs, tissues and blood were removed. The amount of radioactivity in each organ was measured using a 2480 WIZARD^2 gamma counter (PerkinElmer). Counts per minute were converted into MBq using a calibration curve generated from known standards. Values were decay-corrected to the time of injection, and the percentage of the injected dose per gram (% ID/g) of each tissue was calculated.

[1] = + IR (10 Gy), individual animals
[2] = + block (excess cold olaparib), individual animal
[3] = tracer alone, individual animals

Ex vivo biodistribution Blood [1]: 9.79 % ID/g and 3.12 % ID/g
Ex vivo biodistribution Bone [1]: 15.7 % ID/g and 11.5 % ID/g
Ex vivo biodistribution Brain [1]: 0.20 % ID/g and 0.25 % ID/g
Ex vivo biodistribution Caecum [1]: 42.9 % ID/g and 44.6 % ID/g
Ex vivo biodistribution Fat [1]: 2.52 % ID/g and 2.34 % ID/g
Ex vivo biodistribution Gallbladder [1]: 155 % ID/g and 57.3 % ID/g
Ex vivo biodistribution Heart [1]: 8.74 % ID/g and 7.03 % ID/g
Ex vivo biodistribution Kidney [1]: 24.5 % ID/g and 19.0 % ID/g
Ex vivo biodistribution Large intestine [1]: 60.1 % ID/g and 47.0 % ID/g
Ex vivo biodistribution Liver [1]: 93.2 % ID/g and 100 % ID/g
Ex vivo biodistribution Lung [1]: 10.9 % ID/g and 9.61 % ID/g
Ex vivo biodistribution Muscle [1]: 5.45 % ID/g and 5.31 % ID/g
Ex vivo biodistribution Pancreas [1]: 29.5 % ID/g and 23.6 % ID/g
Ex vivo biodistribution Skin [1]: 5.02 % ID/g and 5.12 % ID/g
Ex vivo biodistribution Spleen [1]: 69.0 % ID/g and 58.3 % ID/g
Ex vivo biodistribution Stomach [1]: 9.40 % ID/g and 4.20 % ID/g
Ex vivo biodistribution Tumour [1]: 1.43 % ID/g and 1.92 % ID/g
Ex vivo biodistribution Blood [2]: 4.00 % ID/g
Ex vivo biodistribution Bone [2]: 5.18 % ID/g
Ex vivo biodistribution Brain [2]: 0.22 % ID/g
Ex vivo biodistribution Caecum [2]: 101 % ID/g
Ex vivo biodistribution Fat [2]: 1.57 % ID/g
Ex vivo biodistribution Gallbladder [2]: 194 % ID/g
Ex vivo biodistribution Heart [2]: 2.51 % ID/g
Ex vivo biodistribution Kidney [2]: 8.45 % ID/g
Ex vivo biodistribution Large intestine [2]: 61.2 % ID/g
Ex vivo biodistribution Liver [2]: 74.3 % ID/g
Ex vivo biodistribution Lung [2]: 2.29 % ID/g
Ex vivo biodistribution Muscle [2]: 2.65 % ID/g
Ex vivo biodistribution Pancreas [2]: 3.41 % ID/g
Ex vivo biodistribution Skin [2]: 1.16 % ID/g
Ex vivo biodistribution Spleen [2]: 2.41 % ID/g
Ex vivo biodistribution Stomach [2]: 4.09 % ID/g
Ex vivo biodistribution Tumour [2]: 0.98 % ID/g
Ex vivo biodistribution Blood [3]: 1.78 % ID/g and 8.00 % ID/g
Ex vivo biodistribution Bone [3]: 11.7 % ID/g and 10.2 % ID/g
Ex vivo biodistribution Brain [3]: 0.29 % ID/g and 0.23 % ID/g
Ex vivo biodistribution Caecum [3]: 32.5 % ID/g and 56.2 % ID/g
Ex vivo biodistribution Fat [3]: 7.19 % ID/g and 1.12 % ID/g
Ex vivo biodistribution Gallbladder [3]: 953 % ID/g and 126 % ID/g
Ex vivo biodistribution Heart [3]: 7.34 % ID/g and 0.00 % ID/g
Ex vivo biodistribution Kidney [3]: 23.9 % ID/g and 21.0 % ID/g
Ex vivo biodistribution Large intestine [3]: 24.0 % ID/g and 47.8 % ID/g
Ex vivo biodistribution Liver [3]: 84.6 % ID/g and 110 % ID/g
Ex vivo biodistribution Lung [3]: 12.5 % ID/g and 9.73 % ID/g
Ex vivo biodistribution Muscle [3]: 5.84 % ID/g and 4.63 % ID/g
Ex vivo biodistribution Pancreas [3]: 15.1 % ID/g and 20.8 % ID/g
Ex vivo biodistribution Skin [3]: 3.82 % ID/g and 4.65 % ID/g
Ex vivo biodistribution Spleen [3]: 43.3 % ID/g and 47.0 % ID/g
Ex vivo biodistribution Stomach [3]: 6.17 % ID/g and 12.8 % ID/g
Ex vivo biodistribution Tumour [3]: 1.48 % ID/g and 2.83 % ID/g
tumour uptake (group mean) (excess cold olaparib): 0.80±0.19 % ID/g
tumour uptake (group mean) (tracer alone): 1.71±0.59 % ID/g
Structure (SMILES): O=C(c1cc(Cc2n[nH]c(=O)c3ccccc23)ccc1[18F])N1CCN(C(=O)C2CC2)CC1 [[^18F]olaparib]
